Measurements published in patent US12514251B2, “Fused heterocyclic compounds and their use as pest control agents” (priority 2020, dated 2026).

The compounds below were run on Plutella xylostella (assay: Plutella xylostella, leaf dip method). Details: foliar, cabbage leaf dip, second instar larvae, 72 h after release, dead + moribund vs untreated control, read-out: percent mortality.
Type: in vivo
Protocol: The leaf dip method was used for testing, wherein the required quantity of the compound was weighed and dissolved in a tube containing solvent solution. The tube was put on a vortex at 2000 rpm for 90 min for proper mixing, then diluted with 0.01% Triton-X solution to get the desired test concentration. Cabbage leaves were dipped in the compound solution for 10 seconds, shade dried for 20 min and then transferred into the cells of bioassay trays. A single second instar larva was released into each cell and the tray was covered with a lid. The bio-assay trays were then kept under laboratory conditions at a temperature of 25° C. and a relative humidity of 70%. Observations on dead, moribund and alive larvae were recorded 72 h after the release. Percent mortality was calculated by combining dead and moribund larvae and comparing the result to the one of the untreated control.

SMILES | mortality at 300 ppm
CCS(=O)(=O)c1cc(-n2cnc(Cl)n2)cnc1-c1ccn2nc(C(F)(F)F)nc2n1 [Compound 148, 5-(5-(3-chloro-1H-1,2,4-triazol-1-yl)-3-(ethylsulfonyl)pyridin-2-yl)-2-(trifluoromethyl)-[1,2,4]triazolo[1,5-a]pyrimidine] | ≥ 70%
CCSc1ccc(C)nc1-c1ccn2nc(C(F)(F)F)cc2n1 [Compound 181, 5-(3-(ethylthio)-6-methylpyridin-2-yl)-2-(trifluoromethyl)pyrazolo[1,5-a]pyrimidine] | ≥ 70%
CCS(=O)(=O)c1cc(-c2cc(C(F)(F)F)nn2C)cnc1-c1ccn2nc(C(F)(F)F)cc2n1 [Compound 78, 5-(3-(ethylsulfonyl)-5-(1-methyl-3-(trifluoromethyl)-1H-pyrazol-5-yl)pyridin-2-yl)-2-(trifluoromethyl)pyrazolo[1,5-a]pyrimidine] | ≥ 70%
CCS(=O)(=O)c1ccc(-c2ccc(C#N)cc2)nc1-c1ccn2nc(C(F)(F)F)cc2n1 [Compound 18, 4-(5-(ethylsulfonyl)-6-(2-(trifluoromethyl)pyrazolo[1,5-a]pyrimidin-5-yl)pyridin-2-yl)benzonitrile] | ≥ 70%
CCS(=O)(=O)c1cc(-c2cc(Cl)cc(Cl)c2)cnc1-c1ccn2nc(C(F)(F)F)nc2n1 [Compound 102, 5-(5-(3,5-dichlorophenyl)-3-(ethylsulfonyl)pyridin-2-yl)-2-(trifluoromethyl)-[1,2,4]triazolo[1,5-a]pyrimidine] | ≥ 70%
CCS(=O)(=O)c1cc(C2CCC2)cnc1-c1ccn2nc(C(F)(F)F)cc2n1 [Compound 213, 5-(5-cyclobutyl-3-(ethylsulfonyl)pyridin-2-yl)-2-(trifluoromethyl)pyrazolo[1,5-a]pyrimidine] | ≥ 70%
CCS(=O)(=O)c1ccc(OC2CSC2)nc1-c1ccn2nc(C(F)(F)F)cc2n1 [Compound 243, 5-(3-(ethylsulfonyl)-6-(thietan-3-yloxy)pyridin-2-yl)-2-(trifluoromethyl)pyrazolo[1,5-a]pyrimidine] | ≥ 70%
CCS(=O)(=O)c1cc(-c2ccc(Cl)c(F)c2)cnc1-c1ccn2nc(C(F)(F)F)nc2n1 [Compound 162, 5-(5-(4-chloro-3-fluorophenyl)-3-(ethylsulfonyl)pyridin-2-yl)-2-(trifluoromethyl)-[1,2,4]triazolo[1,5-a]pyrimidine] | ≥ 70%
CCS(=O)(=O)c1cc(-c2cccc(C(F)(F)F)c2)cnc1-c1ncc2nc(C(F)(F)F)n(C)c2n1 [Compound 117, 2-(3-(ethylsulfonyl)-5-(3-(trifluoromethyl)phenyl)pyridin-2-yl)-9-methyl-8-(trifluoromethyl)-9H-purine] | ≥ 70%
CCS(=O)(=O)c1ccc(C=C(C)C)nc1-c1ccn2nc(C(F)(F)F)cc2n1 [Compound 210, 5-(3-(ethylsulfonyl)-6-(2-methylprop-1-en-1-yl)pyridin-2-yl)-2-(trifluoromethyl)pyrazolo[1,5-a]pyrimidine] | ≥ 70%
CCS(=O)(=O)c1ccc(-c2ccc(OC(F)(F)C(F)F)cc2)nc1-c1ccn2nc(C(F)(F)F)cc2n1 [Compound 28, 5-(3-(ethylsulfonyl)-6-(4-(1,1,2,2-tetrafluoroethoxy)phenyl)pyridin-2-yl)-2-(trifluoromethyl)pyrazolo[1,5-a]pyrimidine] | ≥ 70%
CCS(=O)(=O)c1cc(-c2cc(F)cc(F)c2)cnc1-c1ncc2nc(C(F)(F)F)n(C)c2n1 [Compound 122, 2-(5-(3,5-difluorophenyl)-3-(ethylsulfonyl)pyridin-2-yl)-9-methyl-8-(trifluoromethyl)-9H-purine] | ≥ 70%
CCS(=O)(=O)c1cc(NC(=O)C2CC2)cnc1-c1ccn2nc(C(F)(F)F)cc2n1 [Compound 233, N-(5-(ethylsulfonyl)-6-(2-(trifluoromethyl)pyrazolo[1,5-a]pyrimidin-5-yl)pyridin-3-yl)cyclopropanecarboxamide] | ≥ 70%
CCS(=O)(=O)c1cc(-c2ccc(F)cc2)cnc1-c1ncc2nc(C(F)(F)F)n(C)c2n1 [Compound 118, 2-(3-(ethylsulfonyl)-5-(4-fluorophenyl)pyridin-2-yl)-9-methyl-8-(trifluoromethyl)-9H-purine] | ≥ 70%
CCSc1cc(-c2ccnn2C)cnc1-c1ccn2nc(C(F)(F)F)cc2n1 [Compound 67, 5-(3-(ethylthio)-5-(1-methyl-1H-pyrazol-5-yl)pyridin-2-yl)-2-(trifluoromethyl)pyrazolo[1,5-a]pyrimidine] | ≥ 70%
CCSc1cc(C2CC2)cnc1-c1ccn2nc(C(F)(F)F)cc2n1 [Compound 189, 5-(5-cyclopropyl-3-(ethylthio)pyridin-2-yl)-2-(trifluoromethyl)pyrazolo[1,5-a]pyrimidine] | ≥ 70%

SMILES | mortality at 300 ppm
CCSc1ccc(-n2cncn2)nc1-c1cnc2cc(C(F)(F)F)nn2c1 [Compound 40, 6-(3-(ethylthio)-6-(1H-1,2,4-triazol-1-yl)pyridin-2-yl)-2-(trifluoromethyl)pyrazolo[1,5-a]pyrimidine] | ≥ 70%
CCS(=O)(=O)c1cc(NC)cnc1-c1ccn2nc(C(F)(F)F)cc2n1 [Compound 218, 5-(ethylsulfonyl)-N-methyl-6-(2-(trifluoromethyl)pyrazolo[1,5-a]pyrimidin-5-yl)pyridin-3-amine] | ≥ 70%
CCOc1ccc(S(=O)(=O)CC)c(-c2ccn3nc(C(F)(F)F)cc3n2)n1 [Compound 227, 5-(6-ethoxy-3-(ethylsulfonyl)pyridin-2-yl)-2-(trifluoromethyl)pyrazolo[1,5-a]pyrimidine] | ≥ 70%
CCS(=O)(=O)c1ccc(C)nc1-c1ccn2nc(C(F)(F)F)nc2n1 [Compound 183, 5-(3-(ethylsulfonyl)-6-methylpyridin-2-yl)-2-(trifluoromethyl)-[1,2,4]triazolo[1,5-a]pyrimidine] | ≥ 70%
CCS(=O)(=O)c1ccc(-n2ncn(-c3ccc(OC(F)(F)F)cc3)c2=O)nc1-c1ccn2nc(C(F)(F)F)cc2n1 [Compound 10, 2-(5-(ethylsulfonyl)-6-(2-(trifluoromethyl)pyrazolo[1,5-a]pyrimidin-5-yl)pyridin-2-yl)-4-(4-(trifluoromethoxy)phenyl)-2,4-dihydro-3H-1,2,4-triazol-3-one] | ≥ 70%
CCS(=O)(=O)c1cc(C)cnc1-c1ccn2nc(C(F)(F)F)cc2n1 [Compound 164, 5-(3-(ethylsulfonyl)-5-methylpyridin-2-yl)-2-(trifluoromethyl)pyrazolo[1,5-a]pyrimidine] | ≥ 70%
CCS(=O)(=O)c1ccc(-n2nc3ccc(C(F)(F)F)cn3c2=O)nc1-c1ccn2nc(C(F)(F)F)cc2n1 [Compound 27, 2-(5-(ethylsulfonyl)-6-(2-(trifluoromethyl)pyrazolo[1,5-a]pyrimidin-5-yl)pyridin-2-yl)-6-(trifluoromethyl)-[1,2,4]triazolo[4,3-a]pyridin-3(2H)-one] | ≥ 70%
CCS(=O)(=O)c1ccc(-c2ccccc2)nc1-c1ccn2nc(C(F)(F)F)cc2n1 [Compound 15, 5-(3-(ethylsulfonyl)-6-phenylpyridin-2-yl)-2-(trifluoromethyl)pyrazolo[1,5-a]pyrimidine] | ≥ 70%
CCS(=O)(=O)c1ccc(N2CCn3c(nnc3C(F)(F)F)C2)nc1-c1ccn2nc(C(F)(F)F)cc2n1 [Compound 6, 7-(5-(ethylsulfonyl)-6-(2-(trifluoromethyl)pyrazolo[1,5-a]pyrimidin-5-yl)pyridin-2-yl)-3-(trifluoromethyl)-5,6,7,8-tetrahydro-[1,2,4]triazolo[4,3-a]pyrazine] | ≥ 70%
CCS(=O)(=O)c1ccc(-n2ccc(F)n2)nc1-c1ccn2nc(C(F)(F)F)cc2n1 [Compound 140, 5-(3-(ethylsulfonyl)-6-(3-fluoro-1H-pyrazol-1-yl)pyridin-2-yl)-2-(trifluoromethyl)pyrazolo[1,5-a]pyrimidine] | ≥ 70%
CCS(=O)(=O)c1ccc(-c2ccc(F)cc2)nc1-c1ccn2nc(C(F)(F)F)cc2n1 [Compound 16, 5-(3-(ethylsulfonyl)-6-(4-fluorophenyl)pyridin-2-yl)-2-(trifluoromethyl)pyrazolo[1,5-a]pyrimidine] | ≥ 70%
CCS(=O)(=O)c1cc(-n2cnc(Br)n2)cnc1-c1ccn2nc(C(F)(F)F)cc2n1 [Compound 177, 5-(5-(3-bromo-1H-1,2,4-triazol-1-yl)-3-(ethylsulfonyl)pyridin-2-yl)-2-(trifluoromethyl)pyrazolo[1,5-a]pyrimidine] | ≥ 70%
CCS(=O)(=O)c1cc(-n2cnc(C)n2)cnc1-c1ccn2nc(C(F)(F)F)cc2n1 [Compound 69, 5-(3-(ethylsulfonyl)-5-(3-methyl-1H-1,2,4-triazol-1-yl)pyridin-2-yl)-2-(trifluoromethyl)pyrazolo[1,5-a]pyrimidine] | ≥ 70%
CCS(=O)(=O)c1cc(C2CC2)cnc1-c1ccn2nc(C(F)(F)F)nc2n1 [Compound 142, 5-(5-cyclopropyl-3-(ethylsulfonyl)pyridin-2-yl)-2-(trifluoromethyl)-[1,2,4]triazolo[1,5-a]pyrimidine] | ≥ 70%
CCS(=O)(=O)c1ccc(-c2cccc(C#N)c2)nc1-c1ccn2nc(C(F)(F)F)cc2n1 [Compound 23, 3-(5-(ethylsulfonyl)-6-(2-(trifluoromethyl)pyrazolo[1,5-a]pyrimidin-5-yl)pyridin-2-yl)benzonitrile] | ≥ 70%
CCS(=O)(=O)c1cc(-c2cc(Cl)cc(Cl)c2)cnc1-c1ncc2nc(C(F)(F)F)n(C)c2n1 [Compound 128, 2-(5-(3,5-dichlorophenyl)-3-(ethylsulfonyl)pyridin-2-yl)-9-methyl-8-(trifluoromethyl)-9H-purine] | ≥ 70%
